Here are results for 80 molecules from PubChem BioAssay AID1199 (EPA DSSTox, 2008).

This series relates to mouse carcinogenicity bioassay, TD50 from CPDB. Nature of the series: DSSTox (CPDBAS) Carcinogenic Potency Database Summary Mouse Bioassay Results. In short, it runs like this: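 Values are TD50 carcinogenic potencies from mouse chronic bioassays, taking the most positive result for each sex-species. Sources are published literature and NCI/NTP studies; target sites reflect author-reported positive findings.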

The mark [1] stands for this setting: TD50_Mouse_Note: no positive results, TargetSites_Mouse_Female: no positive results.
Setting [2] is: TD50_Mouse_Note: TD50 is harmonic mean of more than one positive test, TargetSites_Mouse_Female: liver.
Where [3] appears, read: TargetSites_Mouse_Female: liver.
The mark [4] stands for this setting: TD50_Mouse_Note: TD50 is harmonic mean of more than one positive test, TargetSites_Mouse_Female: liver, stomach.
The mark [5] stands for this setting: TD50_Mouse_Note: TD50 is harmonic mean of more than one positive test, harmonic mean of TD50 includes a value for upper 99% confidence li, TargetSites_Mouse_Female: liver.
Where [6] appears, read: TD50_Mouse_Note: TD50 is harmonic mean of more than one positive test, TargetSites_Mouse_Female: stomach.
[7] abbreviates: TD50_Mouse_Note: TD50 is harmonic mean of more than one positive test, TargetSites_Mouse_Female: lung.

The source made the active and inactive calls.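 The calls were made as follows: active = a tumour-causing dose and a tumour site recorded for mice in at least one sex group; inconclusive = only government mouse studies exist and were judged inadequate; inactive = mouse studies exist but none gave tumours.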

Consider `C[C@H]([C@H](O)CCC(C)(C)O)[C@H]1CC[C@@]2(O)C3=CC(=O)[C@@H]4C[C@@H](O)[C@@H](O)C[C@]4(C)[C@H]3CC[C@]12C`, for which the Potency (TD50_Mouse_Note: TD50 is harmonic mean of more than one positive test, TargetSites_Mouse_Female: mammary gland) is 7.7e-05 mmol/kg/day. As for `CC1=C(/C=C/C(C)=C/C=C/C(C)=C/C(=O)O)C(C)(C)CCC1`, the outcome under setting [1] was “inactive; no positive results”. As to `O=[N+]([O-])c1ccc(O)c([N+](=O)[O-])c1`, the outcome reads like this: under setting [1], “inactive”; (TargetSites_Mouse_BothSexes: no positive results) “inactive”. As to `COC(=O)C(c1ccccc1)C1CCCCN1` (centres undefined), the Potency under setting [2] was 0.371 mmol/kg/day. For the molecule `COC(C)(C)C`, the Potency under setting [3] is 74.3 mmol/kg/day. `O=C(O)c1cc(Oc2ccc(C(F)(F)F)cc2Cl)ccc1[N+](=O)[O-]`: the Potency under setting [4] is 0.39 mmol/kg/day. Regarding `CCC(Br)(CC)C(=O)NC(N)=O`, under setting [1], the outcome was “inactive; no positive results”.

On to `C=CCc1ccc2c(c1)OCO2`, for which, under setting [5], the Potency is 0.316 mmol/kg/day. `FC(F)=C(F)F`: the Potency (TD50_Mouse_Note: TD50 is harmonic mean of more than one positive test, TargetSites_Mouse_Female: hematopoietic system, liver, vascular system) was 0.719 mmol/kg/day.

For `O=C1NS(=O)(=O)c2ccccc21`, the outcome under setting [1] is “inactive; no positive results”. Same read-out and setting: then `CC(C)NCC(O)c1ccc2ccccc2c1` (centres undefined), with “inactive; no positive results”. With `O=C(O)c1cc(N=Nc2ccc(S(=O)(=O)Nc3ccccn3)cc2)ccc1O`, under setting [2], the Potency was 3.14 mmol/kg/day.

Consider `ClCOCC(COCCl)OCCl`, for which, where the note is “TD50_Mouse_Note: positive test results only by intraperitoneal or intravenous injection, TargetSites_Mouse_Female: peritoneal cavity”, the Potency was 0.0145 mmol/kg/day.

Turning to `C=CCOC(=O)CC(C)C`, the Potency (TargetSites_Mouse_Female: hematopoietic system) was 0.442 mmol/kg/day.

In the case of `S=C(SSSSSSC(=S)N1CCCCC1)N1CCCCC1`, the outcome under setting [1] is “inactive; no positive results”. `Nc1ccc(Oc2ccc(Cl)cc2)cc1`: the Potency (TargetSites_Mouse_Female: urinary bladder, vascular system) is 1.58 mmol/kg/day.

As for `Nc1cc(S(=O)(=O)[O-])cc2cc(S(=O)(=O)[O-])c(N=Nc3ccc(-c4ccc(N=Nc5c(S(=O)(=O)[O-])cc6cc(S(=O)(=O)[O-])cc(N)c6c5O)c(O)c4)cc3O)c(O)c12.[Cu].[Cu].[Na+].[Na+].[Na+].[Na+]`, the Potency under setting [2] is 0.788 mmol/kg/day. Same read-out and setting: then `O=c1cc[nH]c(=S)[nH]1`, with 0.429 mmol/kg/day.

As for `C/C=C/C=C/C=O`, the Potency under setting [6] was 1.83 mmol/kg/day.

Consider `ClC(Cl)Cl`, for which the Potency (TD50_Mouse_Note: TD50 is harmonic mean of more than one positive test, greater than ten-fold variation among TD50 values for positive res, TargetSites_Mouse_Female: liver) is 0.93 mmol/kg/day. Turning to `CCCCOCCOCCOCc1cc2c(cc1CCC)OCO2`, the Potency under setting [2] was 0.86 mmol/kg/day. Further, under setting [1], the outcome is “inactive; no positive results”. In the case of `O=C(O)c1cccnc1`, the outcome under setting [1] was “inactive; no positive results”. Regarding `ClCCl`, for the setting “TD50_Mouse_Note: TD50 is harmonic mean of more than one positive test, TargetSites_Mouse_Female: liver, lung”, the Potency is 13 mmol/kg/day. In the case of `CCCCCCCCCCCCN=C(N)N`, the outcome under setting [1] was “inactive; no positive results”. As for `ClC1(Cl)C2(Cl)C3(Cl)C4(Cl)C(Cl)(Cl)C5(Cl)C3(Cl)C1(Cl)C5(Cl)C24Cl` (centres undefined), the Potency under setting [2] is 0.00266 mmol/kg/day. For the molecule `[S-]c1nc2ccccc2s1.[S-]c1nc2ccccc2s1.[Zn+2]`, the outcome under setting [1] was “inactive; no positive results”. Take `Cc1ccc(C)c(N)c1`: under setting [2], the Potency was 3.97 mmol/kg/day. Consider `O=P(O)(O)O`, for which the outcome under setting [1] is “inactive; no positive results”. Same read-out and setting: for `CCOC(=O)[C@]1(c2ccccc2)CCC=C[C@H]1N(C)C` the value was “inactive; no positive results”; for `O=C(O)CN(CCN(CC(=O)O)CC(=O)O)CC(=O)O`, “inactive; no positive results”.

For `O=C(CCl)c1ccccc1`, the outcome under setting [1] is “inactive; no positive results”.

Regarding `OC[C@@H](O)[C@@H](O)[C@H](O)[C@H](O)CO`, the outcome under setting [1] was “inactive; no positive results”. As for `CC(Cl)C=O` (centres undefined), the Potency (TargetSites_Mouse_Female: stomach) was 0.139 mmol/kg/day.

With `O=C1CN=C(c2ccccc2)c2cc(Cl)ccc2N1CC1CC1`, the outcome under setting [1] was “inactive; no positive results”. For the molecule `COc1cc2c(c3oc(=O)c4c(c13)CCC4=O)C1C=COC1O2` (centres undefined), under setting [1], the outcome is “inactive; no positive results”. Still for that read-out and setting: then `O=[N+]([O-])c1cc(N(CCO)CCO)ccc1NCCO`, with “inactive; no positive results”.

Regarding `O=c1cc(CO)occ1O`, where the note is “TD50_Mouse_Note: TD50 is harmonic mean of more than one positive test, TargetSites_Mouse_Female: thyroid gland”, the Potency was 4.63 mmol/kg/day. Regarding `O=CNNC=O`, the Potency under setting [7] is 7.59 mmol/kg/day. For `CN(N=O)C(=O)N[C@@H]1[C@@H](O)[C@H](O)[C@@H](CO)O[C@@H]1O`, the Potency (TD50_Mouse_Note: positive test results only by intraperitoneal or intravenous injection, TD50 is harmonic mean of more than one positive, TargetSites_Mouse_Female: kidney, lung) was 0.00103 mmol/kg/day. With `CCOc1ccc(NC(=O)CC(C)O)cc1` (centres undefined), the outcome (TD50_Mouse_Note: TD50_Mouse_mmol was not calculated for this mixture, but Activiity Score is assigned value of 50 to indicate active, TargetSites_Mouse_Female: no positive results) is “active; kidney”. As to `NC(N)=O`, under setting [1], the outcome was “inactive; no positive results”. Regarding `Cc1ccc(N)cc1N`, the Potency was 1.04 mmol/kg/day under setting [2] and 0.219 mmol/kg/day under setting [3]. Consider `C=C(C)CCl`, for which the Potency reads like this: (TD50_Mouse_Note: TD50 is harmonic mean of more than one positive test, TargetSites_Mouse_Female: harderian gland, stomach) 11 mmol/kg/day; under setting [6], 0.858 mmol/kg/day. Take `C=C1C(CCl)(CCl)C2(Cl)C(Cl)C(Cl)C1(Cl)C2(Cl)Cl` (centres undefined): the outcome (TD50_Mouse_Note: TD50 is harmonic mean of more than one positive test, TD50_Mouse_mmol was not calculated for this mixture, but Activiity, TargetSites_Mouse_Female: liver) is “active; liver”. As to `CN1CCCC1=O`, the Potency under setting [2] is 20.7 mmol/kg/day. Consider `C=CC`, for which the outcome under setting [1] is “inactive; no positive results”. Same read-out and setting: then `OC[C@@H](O)[C@H]1O[C@@H]2O[C@H](C(Cl)(Cl)Cl)O[C@@H]2[C@H]1O`, with “inactive; no positive results”; and `Nc1ncc([N+](=O)[O-])s1`, with “inactive; no positive results”. Regarding `O=[N+]([O-])c1ccc(-c2cnc3ccccn23)o1`, the Potency (TD50_Mouse_Note: TD50 is harmonic mean of more than one positive test, TargetSites_Mouse_Female: esophagus, stomach) is 0.118 mmol/kg/day. In the case of `Nc1ccc([N+](=O)[O-])cc1O`, the outcome under setting [1] was “inactive; no positive results”. `O=C1CCCO1`: the outcome under setting [1] was “inactive; no positive results”.

Consider `CS(=O)(=O)OCCCNCCCOS(C)(=O)=O`, for which the outcome under setting [1] is “inactive; no positive results”. On the same count and under the same terms, for `Cc1ccc2ccccc2c1` the value was “inactive; no positive results”. With `CC(=O)O[C@]1(C(C)=O)CC[C@H]2[C@@H]3C=C(Cl)C4=CC(=O)[C@@H]5C[C@@H]5[C@]4(C)[C@H]3CC[C@@]21C`, the Potency under setting [4] was 0.0525 mmol/kg/day. Regarding `Nc1ccc(O)c(N)c1`, the Potency (TargetSites_Mouse_Female: no positive results) is 0.726 mmol/kg/day. `S=P(N1CC1)(N1CC1)N1CC1`: the Potency (TD50_Mouse_Note: positive test results only by intraperitoneal or intravenous injection, TD50 is harmonic mean of more than one positive, TargetSites_Mouse_Female: hematopoietic system) is 0.00118 mmol/kg/day. As to `O=Cc1ccccc1`, under setting [6], the Potency is 14 mmol/kg/day. In the case of `COC(=O)C1=CCCN(C)C1`, for the setting “TD50_Mouse_Note: TD50 is harmonic mean of more than one positive test, TargetSites_Mouse_Female: lung, vascular system”, the Potency is 0.206 mmol/kg/day.

`CC(=O)OCc1ccccc1`: the Potency under setting [4] is 9.59 mmol/kg/day. Consider `NNC(=O)c1ccccc1`, for which the Potency (TD50_Mouse_Note: TD50 is harmonic mean of more than one positive test, TargetSites_Mouse_Female: hematopoietic system, lung) was 0.0704 mmol/kg/day. On to `Cc1cccc(C)c1`, for which the outcome under setting [1] is “inactive; no positive results”. Turning to `Nc1ncn[nH]1`, the Potency under setting [2] is 0.301 mmol/kg/day. For `CN(C)C=O`, under setting [1], the outcome is “inactive; no positive results”. Regarding `CC(CCl)OC(C)CCl` (centres undefined), the Potency under setting [7] is 1.12 mmol/kg/day.

On to `CCN(CC)C(=S)S`, for which, under setting [1], the outcome was “inactive; no positive results”. Same read-out and setting: then `COc1cc(-c2ccc(N=C=O)c(OC)c2)ccc1N=C=O`, with “inactive; no positive results”. `CC/C=C(/CC)[N+](=O)[O-]`: the Potency (TargetSites_Mouse_BothSexes: lung) was 0.00268 mmol/kg/day. For the molecule `C=CF`, the Potency (TD50_Mouse_Note: TD50 is harmonic mean of more than one positive test, TargetSites_Mouse_Female: harderian gland, lung, mammary gland, vascular system) was 0.176 mmol/kg/day. Turning to `O1[As]2O[As]3O[As]1O[As](O2)O3`, the outcome under setting [1] was “inactive; no positive results”. On the same count and under the same terms, then `C[C@]12CC[C@@H]3c4ccc(O)cc4CC[C@H]3[C@@H]1CC[C@@H]2O`, with “inactive”; and `Clc1ccccc1Cl`, with “inactive; no positive results”. Turning to `CCCc1cc(=O)[nH]c(=S)[nH]1`, for the setting “TargetSites_Mouse_BothSexes: pituitary gland”, the Potency was 2.4 mmol/kg/day.

In the case of `Cc1cccc(OCC(O)CNC(C)(C)C)c1C` (centres undefined), under setting [1], the outcome is “inactive; no positive results”.

As to `Nc1ccc2oc3ccccc3c2c1`, the Potency under setting [5] was 0.0231 mmol/kg/day.

Regarding `COc1cc(N=Nc2ccccc2)ccc1N`, the Potency under setting [3] was 0.265 mmol/kg/day. As for `CCc1ccccc1`, the Potency under setting [2] is 15.1 mmol/kg/day.

Regarding `ClC(Cl)=C(c1ccc(Cl)cc1)c1ccc(Cl)cc1`, the Potency under setting [2] is 0.0393 mmol/kg/day. Consider `CN(N=O)C1=Nc2ccc(Cl)cc2C(c2ccccc2)=[N+]([O-])C1`, for which the outcome under setting [1] was “inactive; no positive results”. `c1ccncc1`: the Potency under setting [2] is 0.308 mmol/kg/day. For `O=C1c2cccc(O)c2C(=O)c2c(O)cccc21`, the Potency was 0.837 mmol/kg/day.
